pEC50, pIC50: −log10 of the molar value. Calls of active or inactive are those of the source. The rule behind the calls is not given here.
Legend:
[1] = Half life in mouse hepatocytes; format: ADME, cell-based, Hepatocyte
[2] = Selectivity index, ratio of EC50 for Trypanosoma cruzi to EC50 for antitrypanosomal activity against Trypanosoma brucei Lister 427 bloodstream forms; format: functional
Trypanosoma cruzi = assay: Antiparasitic activity against Trypanosoma cruzi; format: functional, organism-based
Trypanosoma brucei [3] = assay: Antitrypanosomal activity against Trypanosoma brucei Lister 427 bloodstream forms in presence of 10% FBS after 24 hrs by celltiter glo assay; format: functional, organism-based; settings: Lister 427, 24 h
[4] = Selectivity index, ratio of EC50 for Plasmodium falciparum 3D7 infected in human erythrocytes to EC50 for antitrypanosomal activity against Trypanosoma brucei Lister 427 bloodstream forms; format: functional
[5] = Cytotoxicity against HUVEC; format: cell-based; settings: human
Plasmodium falciparum = assay: Antimalarial activity against Plasmodium falciparum 3D7 infected in human erythrocytes after 72 hrs by spectrophotometric analysis; format: functional, organism-based; settings: 3D7, 72 h
[6] = Half life in human hepatocytes; format: ADME, cell-based, Hepatocyte
[7] = Cytotoxicity against human HeLa cells assessed as reduction in cell viability after 72 hrs by celltiter glo assay; format: cell-based
[8] = molecular target: Histone deacetylase 5 (Homo sapiens) (UniProt Q9UQL6); assay: Inhibition of human HDAC5 up to 5 uM
Histone deacetylase 5 (Homo sapiens), sequence (Q9UQL6 whole entry): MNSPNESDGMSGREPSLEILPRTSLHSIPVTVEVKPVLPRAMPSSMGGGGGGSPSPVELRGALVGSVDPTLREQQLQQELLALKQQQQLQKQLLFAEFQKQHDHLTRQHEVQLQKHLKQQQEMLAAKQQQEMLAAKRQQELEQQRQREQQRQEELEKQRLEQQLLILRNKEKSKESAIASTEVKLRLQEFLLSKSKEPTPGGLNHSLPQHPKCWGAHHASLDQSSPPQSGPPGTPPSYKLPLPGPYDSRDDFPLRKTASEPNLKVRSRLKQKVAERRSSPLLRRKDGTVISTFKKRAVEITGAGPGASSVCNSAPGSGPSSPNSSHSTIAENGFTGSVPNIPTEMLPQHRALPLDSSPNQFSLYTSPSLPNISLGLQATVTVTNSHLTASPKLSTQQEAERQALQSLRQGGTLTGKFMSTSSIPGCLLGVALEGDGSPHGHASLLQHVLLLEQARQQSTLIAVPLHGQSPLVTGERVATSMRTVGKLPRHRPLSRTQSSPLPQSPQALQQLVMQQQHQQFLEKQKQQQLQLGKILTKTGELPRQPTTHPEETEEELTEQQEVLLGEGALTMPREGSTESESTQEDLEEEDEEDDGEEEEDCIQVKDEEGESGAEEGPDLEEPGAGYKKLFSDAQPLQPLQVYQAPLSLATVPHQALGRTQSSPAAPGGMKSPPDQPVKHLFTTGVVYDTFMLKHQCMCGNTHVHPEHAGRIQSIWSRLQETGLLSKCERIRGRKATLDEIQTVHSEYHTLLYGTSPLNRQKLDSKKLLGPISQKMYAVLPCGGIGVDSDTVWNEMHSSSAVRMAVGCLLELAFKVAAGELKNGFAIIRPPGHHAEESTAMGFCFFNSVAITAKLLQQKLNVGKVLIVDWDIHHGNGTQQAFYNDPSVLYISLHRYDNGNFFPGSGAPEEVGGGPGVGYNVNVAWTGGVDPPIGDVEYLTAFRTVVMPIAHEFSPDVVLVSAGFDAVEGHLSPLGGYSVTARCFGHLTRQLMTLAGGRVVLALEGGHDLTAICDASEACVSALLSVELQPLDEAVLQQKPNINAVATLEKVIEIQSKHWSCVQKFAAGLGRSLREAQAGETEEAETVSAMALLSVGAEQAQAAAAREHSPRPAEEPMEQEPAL

[9] = molecular target: T1, Histone deacetylase 8 (Homo sapiens) (UniProt Q9BY41); assay: Inhibition of human HDAC8 up to 5 uM
T1 sequence (whole entry): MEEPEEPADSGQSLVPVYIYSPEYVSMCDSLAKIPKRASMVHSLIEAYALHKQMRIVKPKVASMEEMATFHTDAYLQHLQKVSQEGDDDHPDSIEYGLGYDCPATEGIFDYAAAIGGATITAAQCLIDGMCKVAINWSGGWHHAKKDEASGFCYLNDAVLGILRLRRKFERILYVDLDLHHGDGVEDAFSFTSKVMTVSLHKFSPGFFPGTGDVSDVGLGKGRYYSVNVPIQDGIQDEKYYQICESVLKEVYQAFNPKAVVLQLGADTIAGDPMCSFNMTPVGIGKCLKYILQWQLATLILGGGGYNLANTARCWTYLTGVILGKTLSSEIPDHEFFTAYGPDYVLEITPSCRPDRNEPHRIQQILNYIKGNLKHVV

[10] = molecular target: Histone deacetylase 9 (Homo sapiens) (UniProt Q9UKV0); assay: Inhibition of human HDAC9 up to 5 uM
Histone deacetylase 9 (Homo sapiens), sequence (Q9UKV0 whole entry): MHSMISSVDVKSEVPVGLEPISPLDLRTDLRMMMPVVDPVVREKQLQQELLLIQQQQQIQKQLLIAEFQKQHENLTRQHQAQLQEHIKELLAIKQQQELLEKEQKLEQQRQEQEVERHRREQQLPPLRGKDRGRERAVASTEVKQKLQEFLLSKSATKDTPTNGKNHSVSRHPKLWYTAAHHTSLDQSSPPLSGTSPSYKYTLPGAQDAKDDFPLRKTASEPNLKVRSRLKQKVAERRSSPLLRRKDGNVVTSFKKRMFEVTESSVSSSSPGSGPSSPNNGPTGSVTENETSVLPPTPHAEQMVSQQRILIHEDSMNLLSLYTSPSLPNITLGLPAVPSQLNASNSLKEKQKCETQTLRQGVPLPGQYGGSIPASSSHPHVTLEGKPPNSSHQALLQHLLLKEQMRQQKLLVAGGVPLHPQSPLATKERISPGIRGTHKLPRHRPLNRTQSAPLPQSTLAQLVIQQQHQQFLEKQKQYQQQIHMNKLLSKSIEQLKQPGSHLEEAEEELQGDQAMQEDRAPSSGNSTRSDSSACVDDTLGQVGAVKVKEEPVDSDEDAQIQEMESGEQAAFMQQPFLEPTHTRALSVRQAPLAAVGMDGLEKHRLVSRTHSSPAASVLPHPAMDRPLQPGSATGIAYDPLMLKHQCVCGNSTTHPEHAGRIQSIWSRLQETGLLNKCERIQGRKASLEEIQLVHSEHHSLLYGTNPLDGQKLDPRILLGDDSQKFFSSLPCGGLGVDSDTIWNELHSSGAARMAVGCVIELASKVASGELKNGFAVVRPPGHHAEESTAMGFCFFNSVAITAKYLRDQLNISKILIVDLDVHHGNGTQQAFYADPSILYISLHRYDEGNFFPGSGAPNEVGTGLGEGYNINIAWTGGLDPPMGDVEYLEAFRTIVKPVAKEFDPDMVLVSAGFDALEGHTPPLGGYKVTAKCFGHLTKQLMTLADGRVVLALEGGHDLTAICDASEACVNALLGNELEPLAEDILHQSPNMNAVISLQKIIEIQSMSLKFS

[11] = molecular target: T2, Histone deacetylase 7 (Homo sapiens) (UniProt Q8WUI4); assay: Inhibition of human HDAC7 up to 5 uM
T2 sequence (whole entry): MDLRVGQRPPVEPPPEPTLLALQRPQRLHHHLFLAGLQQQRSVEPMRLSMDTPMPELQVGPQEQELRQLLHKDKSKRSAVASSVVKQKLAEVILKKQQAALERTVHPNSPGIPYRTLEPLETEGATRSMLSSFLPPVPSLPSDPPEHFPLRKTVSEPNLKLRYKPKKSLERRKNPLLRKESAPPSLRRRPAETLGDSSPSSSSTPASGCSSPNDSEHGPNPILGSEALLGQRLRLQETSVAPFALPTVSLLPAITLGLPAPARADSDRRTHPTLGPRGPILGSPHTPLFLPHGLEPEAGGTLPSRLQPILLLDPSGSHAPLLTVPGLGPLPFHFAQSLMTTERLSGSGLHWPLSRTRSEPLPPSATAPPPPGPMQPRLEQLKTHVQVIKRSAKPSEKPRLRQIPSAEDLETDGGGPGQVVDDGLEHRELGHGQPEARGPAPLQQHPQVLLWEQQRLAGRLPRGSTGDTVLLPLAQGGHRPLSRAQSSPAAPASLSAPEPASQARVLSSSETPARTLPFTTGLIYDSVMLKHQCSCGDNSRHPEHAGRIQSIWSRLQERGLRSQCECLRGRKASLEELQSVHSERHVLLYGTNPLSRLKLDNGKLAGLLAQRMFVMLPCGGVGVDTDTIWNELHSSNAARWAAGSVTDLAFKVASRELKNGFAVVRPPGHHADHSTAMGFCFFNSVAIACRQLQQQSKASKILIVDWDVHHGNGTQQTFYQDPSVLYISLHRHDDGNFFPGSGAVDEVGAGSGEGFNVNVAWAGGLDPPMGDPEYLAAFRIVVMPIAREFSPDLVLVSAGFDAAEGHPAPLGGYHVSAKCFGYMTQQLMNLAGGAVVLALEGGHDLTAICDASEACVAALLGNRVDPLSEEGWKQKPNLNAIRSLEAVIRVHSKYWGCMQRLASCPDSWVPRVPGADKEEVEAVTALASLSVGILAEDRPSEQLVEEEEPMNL

Histone deacetylase 1 [12] = molecular target: T3, Histone deacetylase 1 (Homo sapiens, UniProt Q13547); assay: Inhibition of human HDAC1 up to 5 uM preincubated for 10 mins followed by BML-KI104 substrate addition and measured after 1 hr by spectrophotometric analysis
T3 sequence (Q13547 whole entry): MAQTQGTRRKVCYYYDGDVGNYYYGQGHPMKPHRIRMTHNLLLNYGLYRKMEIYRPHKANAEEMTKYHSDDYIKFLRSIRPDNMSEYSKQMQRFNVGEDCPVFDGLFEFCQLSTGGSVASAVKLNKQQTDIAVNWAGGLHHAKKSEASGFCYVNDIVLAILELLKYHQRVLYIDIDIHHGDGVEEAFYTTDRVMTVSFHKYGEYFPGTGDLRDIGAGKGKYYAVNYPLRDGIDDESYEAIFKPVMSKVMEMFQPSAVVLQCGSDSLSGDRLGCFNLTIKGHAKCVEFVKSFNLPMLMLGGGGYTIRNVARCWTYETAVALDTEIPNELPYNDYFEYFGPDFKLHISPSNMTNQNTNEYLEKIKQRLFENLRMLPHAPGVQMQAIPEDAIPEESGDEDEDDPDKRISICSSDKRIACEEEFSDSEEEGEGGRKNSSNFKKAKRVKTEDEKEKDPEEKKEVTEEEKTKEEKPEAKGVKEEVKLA

[13] = molecular target: T4, Protein deacetylase HDAC6 (Homo sapiens) (UniProt Q9UBN7); assay: Inhibition of human HDAC6 up to 5 uM
T4 sequence (whole entry): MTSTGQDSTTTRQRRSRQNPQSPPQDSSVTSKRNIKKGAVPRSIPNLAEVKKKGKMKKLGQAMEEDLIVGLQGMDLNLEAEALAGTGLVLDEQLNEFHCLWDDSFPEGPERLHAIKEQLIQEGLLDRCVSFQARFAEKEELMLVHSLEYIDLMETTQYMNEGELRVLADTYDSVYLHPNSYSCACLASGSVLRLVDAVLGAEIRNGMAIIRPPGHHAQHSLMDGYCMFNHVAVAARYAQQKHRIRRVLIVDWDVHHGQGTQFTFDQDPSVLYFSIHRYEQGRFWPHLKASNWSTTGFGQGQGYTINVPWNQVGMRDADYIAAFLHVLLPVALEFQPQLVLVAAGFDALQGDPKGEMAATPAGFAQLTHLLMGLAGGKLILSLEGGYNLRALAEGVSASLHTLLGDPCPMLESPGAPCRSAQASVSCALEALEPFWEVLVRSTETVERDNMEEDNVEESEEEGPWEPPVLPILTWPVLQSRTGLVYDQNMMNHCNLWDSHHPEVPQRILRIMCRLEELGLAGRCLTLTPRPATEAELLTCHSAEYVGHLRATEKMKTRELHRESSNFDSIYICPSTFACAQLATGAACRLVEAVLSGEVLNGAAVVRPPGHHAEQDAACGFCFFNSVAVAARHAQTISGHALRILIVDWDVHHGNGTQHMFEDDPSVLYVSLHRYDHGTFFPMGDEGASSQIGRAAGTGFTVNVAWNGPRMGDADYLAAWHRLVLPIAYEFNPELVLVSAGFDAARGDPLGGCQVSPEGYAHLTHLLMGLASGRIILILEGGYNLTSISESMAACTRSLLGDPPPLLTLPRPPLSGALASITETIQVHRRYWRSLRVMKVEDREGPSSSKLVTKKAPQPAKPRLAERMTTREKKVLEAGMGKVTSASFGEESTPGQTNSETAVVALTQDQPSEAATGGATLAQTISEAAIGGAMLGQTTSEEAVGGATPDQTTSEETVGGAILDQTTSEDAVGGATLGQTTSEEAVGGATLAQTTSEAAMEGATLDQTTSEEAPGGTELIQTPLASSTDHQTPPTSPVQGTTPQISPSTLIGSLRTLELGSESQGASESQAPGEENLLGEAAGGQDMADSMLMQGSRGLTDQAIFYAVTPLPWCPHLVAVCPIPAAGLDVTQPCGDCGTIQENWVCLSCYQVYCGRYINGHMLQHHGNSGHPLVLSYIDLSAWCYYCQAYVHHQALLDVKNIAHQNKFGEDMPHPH

[14] = molecular target: Histone deacetylase 4 (Homo sapiens) (UniProt P56524); assay: Inhibition of human HDAC4 up to 5 uM
Histone deacetylase 4 (Homo sapiens), sequence (P56524 whole entry): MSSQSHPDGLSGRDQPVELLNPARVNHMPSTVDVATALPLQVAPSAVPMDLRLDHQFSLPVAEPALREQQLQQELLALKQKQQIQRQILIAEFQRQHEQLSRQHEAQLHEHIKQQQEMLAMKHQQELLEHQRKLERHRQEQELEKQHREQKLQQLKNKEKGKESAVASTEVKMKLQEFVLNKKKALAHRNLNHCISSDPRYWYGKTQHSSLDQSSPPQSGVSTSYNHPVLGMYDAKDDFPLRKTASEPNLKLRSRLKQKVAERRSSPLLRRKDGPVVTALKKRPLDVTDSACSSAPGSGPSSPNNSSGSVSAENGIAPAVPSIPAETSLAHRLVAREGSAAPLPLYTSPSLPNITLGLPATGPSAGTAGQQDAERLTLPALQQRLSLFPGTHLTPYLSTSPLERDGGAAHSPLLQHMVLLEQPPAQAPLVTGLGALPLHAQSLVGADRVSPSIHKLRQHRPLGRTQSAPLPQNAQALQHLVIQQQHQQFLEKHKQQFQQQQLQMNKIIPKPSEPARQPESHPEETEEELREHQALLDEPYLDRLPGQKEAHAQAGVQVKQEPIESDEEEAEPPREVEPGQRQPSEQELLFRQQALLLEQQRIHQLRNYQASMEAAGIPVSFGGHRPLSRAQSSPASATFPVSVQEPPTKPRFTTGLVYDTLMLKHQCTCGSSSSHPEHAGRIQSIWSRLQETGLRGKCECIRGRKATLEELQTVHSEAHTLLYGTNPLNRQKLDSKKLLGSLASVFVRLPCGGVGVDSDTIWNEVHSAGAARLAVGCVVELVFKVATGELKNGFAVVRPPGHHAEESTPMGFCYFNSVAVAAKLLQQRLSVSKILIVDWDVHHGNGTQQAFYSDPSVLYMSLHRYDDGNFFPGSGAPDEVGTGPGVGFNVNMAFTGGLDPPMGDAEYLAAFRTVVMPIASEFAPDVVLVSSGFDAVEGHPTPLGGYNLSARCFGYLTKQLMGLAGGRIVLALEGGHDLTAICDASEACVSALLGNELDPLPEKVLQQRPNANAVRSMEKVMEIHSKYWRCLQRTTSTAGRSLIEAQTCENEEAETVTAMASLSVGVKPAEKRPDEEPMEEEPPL

Histone deacetylase 3 [15] = molecular target: T5, Histone deacetylase 3 (Homo sapiens, UniProt O15379); assay: Inhibition of human HDAC3 up to 5 uM
T5 sequence (O15379 whole entry): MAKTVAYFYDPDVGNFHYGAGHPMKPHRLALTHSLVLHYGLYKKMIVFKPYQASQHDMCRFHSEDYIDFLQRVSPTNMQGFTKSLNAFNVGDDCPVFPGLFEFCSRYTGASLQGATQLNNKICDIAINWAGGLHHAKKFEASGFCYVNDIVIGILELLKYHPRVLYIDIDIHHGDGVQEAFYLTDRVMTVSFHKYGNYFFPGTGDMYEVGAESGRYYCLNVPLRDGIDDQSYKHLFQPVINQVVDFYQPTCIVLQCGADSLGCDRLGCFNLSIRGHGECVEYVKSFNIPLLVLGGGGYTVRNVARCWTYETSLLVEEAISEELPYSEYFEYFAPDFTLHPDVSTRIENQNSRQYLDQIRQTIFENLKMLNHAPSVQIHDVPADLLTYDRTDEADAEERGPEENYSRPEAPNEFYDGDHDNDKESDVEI

Histone deacetylase 2 [16] = molecular target: T6, Histone deacetylase 2 (Homo sapiens, UniProt Q92769); assay: Inhibition of human HDAC2 up to 5 uM
T6 sequence (Q92769 whole entry): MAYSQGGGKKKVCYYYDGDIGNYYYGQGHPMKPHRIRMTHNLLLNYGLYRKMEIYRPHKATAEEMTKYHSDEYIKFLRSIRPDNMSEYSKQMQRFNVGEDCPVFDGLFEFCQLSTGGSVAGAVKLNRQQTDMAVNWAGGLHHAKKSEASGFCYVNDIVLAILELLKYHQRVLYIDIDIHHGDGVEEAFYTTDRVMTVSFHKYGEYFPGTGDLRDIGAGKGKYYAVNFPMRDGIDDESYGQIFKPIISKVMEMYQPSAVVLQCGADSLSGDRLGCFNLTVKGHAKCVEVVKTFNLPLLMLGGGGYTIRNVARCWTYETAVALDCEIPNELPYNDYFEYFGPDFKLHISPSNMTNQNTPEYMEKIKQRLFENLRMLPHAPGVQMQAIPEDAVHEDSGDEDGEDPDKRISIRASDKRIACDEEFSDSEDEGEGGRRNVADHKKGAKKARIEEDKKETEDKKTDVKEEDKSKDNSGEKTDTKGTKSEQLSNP

Histone deacetylase 2 [17] = molecular target: T6, Histone deacetylase 2; assay: Inhibition of human HDAC2
Histone deacetylase 3 [18] = molecular target: T5, Histone deacetylase 3; assay: Inhibition of human HDAC3
Histone deacetylase 1 [19] = molecular target: T3, Histone deacetylase 1; assay: Inhibition of human HDAC1 preincubated for 10 mins followed by BML-KI104 substrate addition and measured after 1 hr by spectrophotometric analysis
[20] = molecular target: Class 1 histone deacetylase (Homo sapiens, UniProt Q13547+O15379+Q92769+Q9BY41); assay: Inhibition of HDAC class 1 in human HeLa cells after 4 hrs by spectrophotometric analysis; format: cell-based
Trypanosoma brucei [21] = assay: Inhibition of Trypanosoma brucei Aurora 1 kinase
Trypanosoma brucei [22] = assay: Inhibition of Trypanosoma brucei adenosine kinase
Trypanosoma brucei [23] = assay: Inhibition of Trypanosoma brucei trypanothione reductase
Trypanosoma brucei [24] = assay: Inhibition of Trypanosoma brucei GSK3

SMILES	pEC50 (Trypanosoma brucei [3])	CC50 at 72 h [7]	further results
COc1ccc2[nH]c(C)c(CC(=O)N3CCN(CC4CCOC4)CC3c3ncc(-c4ccc5ccccc5c4)[nH]3)c2c1 (mixture of isomers)	8.30	> 25 µM	half-life [1]: 0.4 h; Ratio EC50 [2]: 1000; pEC50 (Trypanosoma cruzi): 5.09; Ratio EC50 [4]: 1000; CC50 [5]: 18.7 µM; pEC50 (Plasmodium falciparum): 5.44; half-life [6]: 2.4 h
CCC(=O)CCCN1CCN(C(=O)Cc2c(C)[nH]c3ccc(OC)cc23)C(c2ncc(-c3ccc4ccccc4c3)[nH]2)C1 (configuration not stated)	8.00	12.3 µM	inhibition [8]: inactive; inhibition [9]: inactive; inhibition [10]: inactive; inhibition [11]: inactive; inhibition (Histone deacetylase 1 [12]): inactive; inhibition [13]: inactive; inhibition [14]: inactive; inhibition (Histone deacetylase 3 [15]): inactive; inhibition (Histone deacetylase 2 [16]): inactive
COc1ccc2[nH]c(C)c(CC(=O)N3CCN(CCCC(N)=O)CC3c3ncc(-c4ccc5ccccc5c4)[nH]3)c2c1 (configuration not stated)	6.68	> 25 µM	–
CCC(=O)CCCN1CCN(C(=O)Cc2c[nH]c3ccccc23)C(c2ncc(-c3ccc4ccccc4c3)[nH]2)C1 (configuration not stated)	6.31	> 25 µM	pIC50 (Histone deacetylase 2 [17]): < 4.60; pIC50 (Histone deacetylase 3 [18]): < 4.60; pIC50 (Histone deacetylase 1 [19]): < 4.60; IC50 [20]: > 25 µM
CCC(=O)CCCN1CCN(C(=O)Cc2c[nH]c3ncccc23)C(c2ncc(-c3ccc4ccccc4c3)[nH]2)C1 (configuration not stated)	6.26	> 25 µM	–
CCCCCCN1CCN(C(=O)Cc2c(C)[nH]c3ccc(OC)cc23)C(c2ncc(-c3ccc4ccccc4c3)[nH]2)C1 (configuration not stated)	7.10	> 25 µM	–
CNC(=O)CCCN1CCN(C(=O)Cc2c(C)[nH]c3ccc(OC)cc23)C(c2ncc(-c3ccc4ccccc4c3)[nH]2)C1 (configuration not stated)	6.83	> 5 µM	–
COc1ccc2[nH]c(C)c(CC(=O)N3CCN(CCCC(=O)O)CC3c3ncc(-c4ccc5ccccc5c4)[nH]3)c2c1 (configuration not stated)	5.96	> 50 µM	–
COc1ccc2[nH]c(C)c(CC(=O)N3CCN(CCCC(C)O)CC3c3ncc(-c4ccc5ccccc5c4)[nH]3)c2c1 (configuration not stated)	7.89	13.1 µM	–
CCC(=O)CCC(=O)N1CCN(C(=O)Cc2c(C)[nH]c3ccc(OC)cc23)C(c2ncc(-c3ccc4ccccc4c3)[nH]2)C1 (configuration not stated)	6.31	> 25 µM	–
CCC(=O)CCCN1CCN(C(=O)Cc2c[nH]c3ccccc23)[C@@H](c2ncc(-c3ccc4ccccc4c3)[nH]2)C1	5.36	> 32 µM	–
CCC(=O)CCCN1CCN(C(=O)c2ccccc2)C(c2ncc(-c3ccc4ccccc4c3)[nH]2)C1 (configuration not stated)	5.81	> 32 µM	–
COc1ccc2[nH]c(C)c(CC(=O)N3CCN(C)CC3c3ncc(-c4ccc5ccccc5c4)[nH]3)c2c1 (configuration not stated)	7.42	> 25 µM	inhibition (Trypanosoma brucei [21]): inactive; inhibition (Trypanosoma brucei [22]): inactive; inhibition (Trypanosoma brucei [23]): inactive; inhibition (Trypanosoma brucei [24]): inactive
CCC(=O)CCCN1CCN(Cc2ccccc2)C(c2ncc(-c3ccc4ccccc4c3)[nH]2)C1 (configuration not stated)	5.76	14.7 µM	–
CCC(=O)CCCN1CCN(S(=O)(=O)c2ccccc2)C(c2ncc(-c3ccc4ccccc4c3)[nH]2)C1 (configuration not stated)	5.38	> 25 µM	–
CCC(=O)CCCN1CCN(C(=O)Cc2c[nH]c3ccccc23)[C@H](c2ncc(-c3ccc4ccccc4c3)[nH]2)C1	6.37	> 25 µM	–
COC(=O)CCCN1CCN(C(=O)Cc2c(C)[nH]c3ccc(OC)cc23)C(c2ncc(-c3ccc4ccccc4c3)[nH]2)C1 (configuration not stated)	6.81	28.8 µM	–
COc1ccc2[nH]c(C)c(CC(=O)N3CCN(CC4CC4)CC3c3ncc(-c4ccc5ccccc5c4)[nH]3)c2c1 (configuration not stated)	7.80	> 25 µM	–
CCC(=O)CCCN1CCN(C(C)=O)C(c2ncc(-c3ccc4ccccc4c3)[nH]2)C1 (configuration not stated)	< 4.60	> 32 µM	–
CCC(=O)CCCN1CCN(C(=O)Nc2ccccc2)C(c2ncc(-c3ccc4ccccc4c3)[nH]2)C1 (configuration not stated)	5.84	> 25 µM	–
CCC(=O)CCCN1CCN(C(=O)Oc2ccccc2)C(c2ncc(-c3ccc4ccccc4c3)[nH]2)C1 (configuration not stated)	5.91	16.6 µM	–
CCC(=O)CCCN1CCN(C(=O)Cc2ccccc2)C(c2ncc(-c3ccc4ccccc4c3)[nH]2)C1 (configuration not stated)	5.74	> 25 µM	–
CCC(=O)CCCN1CCN(C(=O)Cc2c(C)[nH]c3ccc(OC)cc23)C(c2ncc(-c3ccc4ccccc4c3)o2)C1 (configuration not stated)	5.90	20.6 µM	–
CCC(=O)CCCN1CCN(C(=O)Cc2c(C)[nH]c3ccc(OC)cc23)C(c2nnc(-c3ccc4ccccc4c3)o2)C1 (configuration not stated)	6.52	> 25 µM	–

— ChEMBL document CHEMBL4325912, “Discovery of 2-(1H-imidazo-2-yl)piperazines as a new class of potent and non-cytotoxic inhibitors of Trypanosoma brucei growth in vitro” (Bioorg Med Chem Lett, 2018)
